Experimental findings from US20110243844A1, “SULFONAMIDE DERIVATIVE METABOTROPIC GLUTAMATE R4 LIGANDS” (priority 2008, published 2011) are described below.

In assay [1] the target is T1, mGluR4 (Homo sapiens, UniProt Q14833). The assay is described as follows: mGluR4 binding assay (filtration, [3H] radiotracer displacement, in presence of L-AP4). Also noted: expressed in transfected cells; host or cells: CHO cells. As to conditions: membranes from CHO cells expressing human mGluR4; 20 uM L-AP4; 7 nM radiotracer; 1 hour at room temperature. As to the method:
Membranes were prepared from CHO cells expressing the human mGluR4 receptor. Cells were harvested using trypsin and then washed in assay buffer, assay buffer contains 50 mM HEPES, 1 mM EDTA and protease inhibitors (Boehringer Mannheim catalog #1 836 170). Harvested cells were pelleted by centrifugation and stored at −80° C. for a minimum of 12 hours. Cells were resuspended in assay buffer and lysed by a polytron, a low speed spin, 2000×g for 10 min, was used to recover unbroken cells for additional treatment using the polytron. The cleared supernatant from the low speed spins was subjected to a high speed spin, 96,000×g for 1 hour. The membrane pellet from the high speed spin was resuspended in assay buffer and used in the mGluR4 binding assay.
The binding assay follows a standard filtration binding paradigm. The binding buffer consists of 20 mM HEPES, 100 mM NaCl and 3 mM MgCl2, the pH of the buffer is 7.4. The assay is performed in a 96-well format with each well containing test compound, 25 to 50 ug of membrane protein, 20 uM L-AP4, and 7 nM radiotracer, [^3H]-N-[3-Chloro-4-(4-methyl-1,3-dioxo-1,3-dihydro-2H-isoindol-2-yl)phenyl]pyridine-2-carboxamide, which is disclosed in commonly owned U.S. patent application docket no. MRL-NOP-00030-US-PSP, filed contemporaneously with this application.
The binding reaction is incubated at room temperature for 1 hour, and then is passed through GF/B filter that was presoaked with 0.5% PEI. The cell membranes are collected on the filter and then washed five times with ˜5 ml ice cold binding buffer that contains 0.01% BSA. The washed filter plate is dried for 30 minutes at 37° C., scintillation fluid is added, and the amount of filter bound radioactivity is determined using a TopCount instrument. Total binding is determined in the absence of any test compound, but in the presence of the DMSO concentration that would result from the addition of test compound. To determine the level of non-specific binding for the radiotracer [^3H]-N-[3-Chloro-4-(4-methyl-1,3-dioxo-1,3-dihydro-2H-isoindol-2-yl)phenyl]pyridine-2-carboxamide, 5 uM of unlabeled […]N-[3-Chloro-4-(4-methyl-1,3-dioxo-1,3-dihydro-2H-isoindol-2-yl)phenyl]pyridine-2-carboxamide, is added to determine the level of non-specific binding.
A 10-point dose response, with either 2-fold or 3-fold dilution steps, is performed and curve fitting algorithms, suitable for a sigmoidal dose response relationship, are used to fit the data. The inflection point of the curve, or IC50, provides a measure of the affinity of a test compound for the mGluR4 receptor.

Assay [2] has as its target T1, mGluR4. The assay is described as follows: Fluorescent Imaging Plate Reader (FLIPR) assay for mGluR4 potentiators. On the set-up: expressed in transfected cells. In kind it is cell-based. As to conditions: for EC50: inflection point of curve, potentiation of EC10 concentration of L-AP4 (30 nM), read-out: mGluR4 FLIPR Potency; for Emax: maximal activity relative to response with saturating concentration (10 uM) of agonist L-AP4, read-out: mGluR4 FLIPR % Max Efficacy. As to the method: Fluorescent Imaging Plate Reader (FLIPR) Assay for mGluR4 Potentiators Cells are grown in Corning […] cm^2 flasks in DMEM growth media at 37° C. and 5% CO2. Growth media contains: […] The day prior to the experiment the cells were plated in growth medium (minus glutamine) at 50K cells/well into Becton-Dickinson 384-well PDL-coated plates using a Labsystems Multidrop (0.1 ml/well). The cells are grown overnight at 37° C. and 6% CO2. The following day, the cells are washed with Assay Buffer at 37° C. using a Skatron EMBLA cell washer (3×100 μl, aspiration 3 mm from bottom will leave 30 μl of buffer in each well). Assay buffer is Hanks balanced salt solution with 20 mM HEPES, 2.5 mM probenecid and 0.1% BSA. Fluorescent dye, 30 μl of the diluted Fluo-4-AM, is added to each well of the plate. […] The assay plates are placed back into the 6% CO2 incubator and incubated at 37° C. for 60 min. The 384-well plates are washed with Assay Buffer at 37° C. on using a cell washer (3×100 μl, aspiration 3 mm from bottom, will leave 30 μl of buffer in each well). The experimental run is initiated and after 30 sec a dose of test compound is applied. The fluorescent response elicited by test compound is monitored for 5 min, any positive response detected at this stage is attributed to agonist properties of the test compound. […] Controls for the assay include a no compound control, a positive control which is a saturating concentration, 10 uM, of the agonist L-AP4. A 10 point dose response, with either 2-fold or 3-fold dilution steps, is performed and curve fitting algorithms, suitable for a sigmoidal dose response relationship, are used to fit the data. The inflection point of the curve provides a measure of compound potency. A comparison of the maximal level of activity achieved for a test compound, relative to the response achieved with a saturating concentration of the agonist L-AP4 provides a measure of compound efficacy.

A word on the IC50: it is the concentration at which inhibition is half-maximal.

T1 sequence (Q14833 33-912): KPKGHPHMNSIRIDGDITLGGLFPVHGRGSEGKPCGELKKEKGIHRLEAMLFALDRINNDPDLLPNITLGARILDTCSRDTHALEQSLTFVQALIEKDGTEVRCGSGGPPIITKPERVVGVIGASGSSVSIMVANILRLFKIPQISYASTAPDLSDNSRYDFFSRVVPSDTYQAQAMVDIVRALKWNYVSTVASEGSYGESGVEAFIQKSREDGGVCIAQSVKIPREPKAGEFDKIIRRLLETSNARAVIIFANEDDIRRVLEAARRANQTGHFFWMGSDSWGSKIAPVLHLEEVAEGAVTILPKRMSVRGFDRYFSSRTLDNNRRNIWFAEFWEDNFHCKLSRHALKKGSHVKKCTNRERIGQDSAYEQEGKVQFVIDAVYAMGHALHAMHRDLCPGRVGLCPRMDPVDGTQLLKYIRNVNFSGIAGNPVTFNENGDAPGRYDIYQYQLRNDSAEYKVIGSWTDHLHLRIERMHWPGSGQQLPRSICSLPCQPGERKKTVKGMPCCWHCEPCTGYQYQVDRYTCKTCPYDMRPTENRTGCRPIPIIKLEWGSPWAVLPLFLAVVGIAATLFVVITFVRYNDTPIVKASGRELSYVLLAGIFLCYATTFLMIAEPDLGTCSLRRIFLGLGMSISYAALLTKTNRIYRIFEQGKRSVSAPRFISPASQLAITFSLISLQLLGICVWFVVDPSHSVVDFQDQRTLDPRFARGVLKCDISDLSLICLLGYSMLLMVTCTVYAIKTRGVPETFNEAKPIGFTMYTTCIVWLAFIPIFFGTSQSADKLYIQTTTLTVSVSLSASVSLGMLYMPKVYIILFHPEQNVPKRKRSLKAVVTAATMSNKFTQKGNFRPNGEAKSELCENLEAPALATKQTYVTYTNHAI

Take `Cc1ccc(NS(=O)(=O)c2ccc(NC(=O)c3ccccn3)cc2)cc1` [Example 18]: the IC50 on mGluR4 [1] turned out to be 1100 nM. Moreover, at mGluR4 [2], the EC50 came to 1350 nM and the Emax came to 93%.
As to `O=C(Nc1ccc(S(=O)(=O)Nc2ccccc2Cl)cc1)c1ccccn1` [Example 1, N-(4-{[(2-Chlorophenyl)amino]sulfonyl}phenyl)pyridine-2-carboxamide], on mGluR4 [1], the IC50 stood at 33 nM. On mGluR4 [2], the EC50 turned out to be 162 nM and the Emax was 111%.
Regarding `O=C(Nc1ccc(S(=O)(=O)Nc2ccccc2Br)cc1)c1ccccn1` [Example 30], the concentration for half-maximal inhibition (IC50) at mGluR4 [1] came out at 141 nM. Moreover, on mGluR4 [2], the EC50 is 134 nM and the Emax was 110%.
Regarding `COc1cc(NC(=O)c2ccccn2)ccc1S(=O)(=O)Nc1ccccc1` [Example 6], the IC50 at mGluR4 [1] was 6080 nM. At mGluR4 [2], the EC50 was 3940 nM and the Emax was found to be 70%.
As to `O=C(Nc1ccc(S(=O)(=O)Nc2ccccc2Cc2ccccc2)cc1)c1ccccn1` [Example 41], the IC50 on mGluR4 [1] was 182 nM. On mGluR4 [2], the EC50 was determined as 480 nM and the Emax was found to be 124%.
